Columns and labels:
[1] = test system: SK-MEL-2; test: Cytotoxicity against human SK-MEL-2 cells expressing NRAS mutant assessed as cell growth inhibition incubated for 48 hrs by MTT assay; assay type: functional, cell-based; settings: SK-MEL-2, 48 h
[2] = Binding affinity to 5'-FAM-labeled to NRAS RNA G-quadruplex 5'-r(UGUGGGAGGGGCGGGUCUGGG)-3' (unknown origin) assessed as dissociation constant by fluorescence quenching assay

## CCCCCCCCN=c1ccn(CCCCCCn2ccc(=NCCCCCCCC)cc2)cc1
[1]
  IC50: 1770 nM
[2]
  Kd: 320 nM

## CCCCCNc1cc[n+](CCCC[n+]2ccc(NCCCCC)cc2)cc1
[1]
  IC50: > 25000 nM
[2]
  Kd: 1660 nM

## CCCCCCNc1cc[n+](CCCCCC[n+]2ccc(NCCCCCC)cc2)cc1
[1]
  IC50: 8610 nM
[2]
  Kd: 740 nM

## CCCCCNc1cc[n+](CCCCCC[n+]2ccc(NCCCCC)cc2)cc1
[1]
  IC50: > 25000 nM
[2]
  Kd: 1290 nM

## CCCCCCCCNc1cc[n+](CCCC[n+]2ccc(NCCCCCCCC)cc2)cc1
[1]
  IC50: 5610 nM
[2]
  Kd: 1340 nM

## CCCNc1cc[n+](CCCC[n+]2ccc(NCCC)cc2)cc1
[2]
  Kd: 210 nM

## CCCNc1cc[n+](CCCCCC[n+]2ccc(NCCC)cc2)cc1
[2]
  Kd: 2990 nM

## CCCCCCNc1cc[n+](CCCC[n+]2ccc(NCCCCCC)cc2)cc1
[1]
  IC50: 17300 nM
[2]
  Kd: 760 nM

## CCCNc1cc[n+](CCCCCCCCCC[n+]2ccc(NCCC)cc2)cc1
[1]
  IC50: 8360 nM
[2]
  Kd: 1720 nM

Reference: ChEMBL document CHEMBL5380835, “Discovery of Clinically Used Octenidine as NRAS Repressor That Effectively Inhibits NRAS-Mutant Melanoma” (J Med Chem, 2023)
